Experimental data taken from ChEMBL document CHEMBL1201862, “PubChem BioAssay data set” (2004).
Activity calls are given as the source filed them.

Assays:
[1] = molecular target: T1, Polyadenylate-binding protein 1 (Homo sapiens, UniProt P11940); test: PABP1 MLLE–PAM2 binding inhibitor potency, dose response, biochemical, fluorescence polarization, FITC-PAM2 peptide (AID 602259); assay type: functional; details: read-out: IC50_Mean
[2] = molecular target: T1, Polyadenylate-binding protein 1; test: PABP1 MLLE–PAM2 interaction inhibitors, dose response, miRNA deadenylation inhibitor project, biochemical, fluorescence polarization, Cy5-PAM2 peptide, secondary (AID 602260); assay type: functional; details: read-out: IC50_Mean
[3] = Fluorescence-based cell-based high throughput dose response assay for inhibitors of the interaction of nucleotide-binding oligomerization domain containing 2 (NOD2) and the receptor-interacting serine-threonine kinase 2 (RIPK2).; assay type: functional; details: Homo sapiens
[4] = molecular target: Adenosylmethionine-8-amino-7-oxononanoate aminotransferase (Mycobacterium tuberculosis, UniProt P9WQ81); test: Mycobacterium tuberculosis BioA enzyme inhibitor Measured in Biochemical System Using Plate Reader - 2163-02_Inhibitor_Dose_CherryPick_Activity.; assay type: functional, Mycobacterium tuberculosis UT205
Chain of Adenosylmethionine-8-amino-7-oxononanoate aminotransferase (P9WQ81 whole entry): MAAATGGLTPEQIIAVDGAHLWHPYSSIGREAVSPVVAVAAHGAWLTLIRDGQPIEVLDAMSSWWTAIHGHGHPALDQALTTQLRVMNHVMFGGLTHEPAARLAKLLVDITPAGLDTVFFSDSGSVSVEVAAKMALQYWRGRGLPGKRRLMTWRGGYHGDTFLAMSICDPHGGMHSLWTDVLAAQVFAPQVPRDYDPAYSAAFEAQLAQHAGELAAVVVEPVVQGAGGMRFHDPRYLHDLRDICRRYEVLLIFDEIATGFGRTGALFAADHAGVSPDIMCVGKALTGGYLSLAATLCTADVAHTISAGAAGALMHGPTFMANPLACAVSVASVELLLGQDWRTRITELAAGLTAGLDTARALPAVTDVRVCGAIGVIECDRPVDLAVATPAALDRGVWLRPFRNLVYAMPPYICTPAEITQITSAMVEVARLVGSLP

Protein skinhead-1 = molecular target: T2, Protein skinhead-1 (Caenorhabditis elegans, UniProt P34707); assay type: functional
T2 sequence (P34707 whole entry): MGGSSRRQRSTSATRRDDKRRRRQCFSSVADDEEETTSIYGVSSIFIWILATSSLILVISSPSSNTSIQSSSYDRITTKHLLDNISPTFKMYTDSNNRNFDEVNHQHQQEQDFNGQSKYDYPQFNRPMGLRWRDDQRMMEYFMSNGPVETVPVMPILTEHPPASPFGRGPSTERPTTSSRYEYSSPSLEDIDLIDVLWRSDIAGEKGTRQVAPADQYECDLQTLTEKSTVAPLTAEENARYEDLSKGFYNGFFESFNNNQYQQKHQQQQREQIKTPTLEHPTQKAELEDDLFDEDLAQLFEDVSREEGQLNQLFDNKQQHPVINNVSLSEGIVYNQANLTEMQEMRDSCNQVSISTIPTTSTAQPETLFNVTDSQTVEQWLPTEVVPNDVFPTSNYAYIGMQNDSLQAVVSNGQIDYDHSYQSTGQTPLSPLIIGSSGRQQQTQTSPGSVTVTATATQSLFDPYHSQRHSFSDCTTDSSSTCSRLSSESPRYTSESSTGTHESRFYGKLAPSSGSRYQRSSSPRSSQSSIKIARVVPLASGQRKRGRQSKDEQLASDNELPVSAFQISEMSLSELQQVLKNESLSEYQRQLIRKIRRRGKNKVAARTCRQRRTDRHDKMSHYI

[5] = molecular target: T3, Sentrin-specific protease 8 (Homo sapiens, UniProt Q96LD8); assay type: functional;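 note: luminescence read-out of SENP8 inhibition, dose-response confirmation following an ultra-high-throughput screen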
T3 sequence (Q96LD8 whole entry): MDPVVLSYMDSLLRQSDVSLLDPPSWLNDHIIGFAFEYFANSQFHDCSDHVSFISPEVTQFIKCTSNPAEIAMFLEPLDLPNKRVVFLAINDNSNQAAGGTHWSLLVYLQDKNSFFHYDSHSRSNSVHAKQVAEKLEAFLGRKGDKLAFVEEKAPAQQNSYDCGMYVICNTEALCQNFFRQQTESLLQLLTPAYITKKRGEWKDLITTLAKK

[6] = molecular target: T4, Sentrin-specific protease 7 (Homo sapiens, UniProt Q9BQF6); assay type: functional;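 note: Luminescence-based dose-response confirmation of ultra-high-throughput screening hits, measuring inhibition of SENP7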
T4 sequence (Q9BQF6 whole entry): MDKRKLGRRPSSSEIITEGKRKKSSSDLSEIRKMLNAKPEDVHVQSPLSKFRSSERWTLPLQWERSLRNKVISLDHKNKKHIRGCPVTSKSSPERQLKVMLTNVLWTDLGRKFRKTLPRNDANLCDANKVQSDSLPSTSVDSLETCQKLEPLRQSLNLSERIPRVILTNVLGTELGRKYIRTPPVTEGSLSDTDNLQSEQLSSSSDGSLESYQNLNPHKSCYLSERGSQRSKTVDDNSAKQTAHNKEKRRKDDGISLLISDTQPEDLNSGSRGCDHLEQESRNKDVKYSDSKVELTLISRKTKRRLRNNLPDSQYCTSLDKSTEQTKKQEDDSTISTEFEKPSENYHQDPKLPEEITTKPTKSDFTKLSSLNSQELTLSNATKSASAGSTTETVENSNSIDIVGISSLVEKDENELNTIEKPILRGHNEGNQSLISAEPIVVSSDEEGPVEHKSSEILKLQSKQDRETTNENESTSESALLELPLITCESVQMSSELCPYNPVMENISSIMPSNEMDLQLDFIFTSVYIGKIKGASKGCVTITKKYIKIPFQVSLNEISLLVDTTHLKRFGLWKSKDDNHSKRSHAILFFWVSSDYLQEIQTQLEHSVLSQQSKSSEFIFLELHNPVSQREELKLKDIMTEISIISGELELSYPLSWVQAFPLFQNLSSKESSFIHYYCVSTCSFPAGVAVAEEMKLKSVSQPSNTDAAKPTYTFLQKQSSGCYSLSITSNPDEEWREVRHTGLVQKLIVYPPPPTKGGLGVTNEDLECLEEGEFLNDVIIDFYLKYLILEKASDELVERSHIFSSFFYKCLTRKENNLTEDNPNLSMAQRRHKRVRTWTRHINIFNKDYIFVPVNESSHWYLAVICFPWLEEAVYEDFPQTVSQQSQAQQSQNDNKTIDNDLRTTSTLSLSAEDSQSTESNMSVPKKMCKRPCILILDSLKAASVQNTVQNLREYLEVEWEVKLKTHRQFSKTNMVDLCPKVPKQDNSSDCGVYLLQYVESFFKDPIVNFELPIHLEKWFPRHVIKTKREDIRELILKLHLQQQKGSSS

Caspase-3 = molecular target: T5, Caspase-3 (Homo sapiens, UniProt P42574); assay type: functional;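 note: Dose-response selectivity test against caspase-3 for candidate inhibitors of sentrin-specific proteases (SENPs)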
T5 sequence (P42574 whole entry): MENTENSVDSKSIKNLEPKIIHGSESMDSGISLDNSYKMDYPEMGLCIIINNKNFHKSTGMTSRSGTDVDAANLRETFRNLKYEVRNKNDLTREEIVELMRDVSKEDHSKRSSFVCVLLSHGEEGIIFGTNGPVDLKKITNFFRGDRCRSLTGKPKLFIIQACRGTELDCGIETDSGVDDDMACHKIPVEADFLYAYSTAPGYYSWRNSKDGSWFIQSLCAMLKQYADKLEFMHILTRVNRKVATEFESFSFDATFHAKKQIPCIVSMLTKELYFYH

[7] = molecular target: T6, Sentrin-specific protease 6 (Homo sapiens, UniProt Q9GZR1); assay type: functional;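 note: Luminescence-based dose-response confirmatory assay of SENP6 inhibition, following up an ultra-high-throughput screen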
T6 sequence (Q9GZR1 whole entry): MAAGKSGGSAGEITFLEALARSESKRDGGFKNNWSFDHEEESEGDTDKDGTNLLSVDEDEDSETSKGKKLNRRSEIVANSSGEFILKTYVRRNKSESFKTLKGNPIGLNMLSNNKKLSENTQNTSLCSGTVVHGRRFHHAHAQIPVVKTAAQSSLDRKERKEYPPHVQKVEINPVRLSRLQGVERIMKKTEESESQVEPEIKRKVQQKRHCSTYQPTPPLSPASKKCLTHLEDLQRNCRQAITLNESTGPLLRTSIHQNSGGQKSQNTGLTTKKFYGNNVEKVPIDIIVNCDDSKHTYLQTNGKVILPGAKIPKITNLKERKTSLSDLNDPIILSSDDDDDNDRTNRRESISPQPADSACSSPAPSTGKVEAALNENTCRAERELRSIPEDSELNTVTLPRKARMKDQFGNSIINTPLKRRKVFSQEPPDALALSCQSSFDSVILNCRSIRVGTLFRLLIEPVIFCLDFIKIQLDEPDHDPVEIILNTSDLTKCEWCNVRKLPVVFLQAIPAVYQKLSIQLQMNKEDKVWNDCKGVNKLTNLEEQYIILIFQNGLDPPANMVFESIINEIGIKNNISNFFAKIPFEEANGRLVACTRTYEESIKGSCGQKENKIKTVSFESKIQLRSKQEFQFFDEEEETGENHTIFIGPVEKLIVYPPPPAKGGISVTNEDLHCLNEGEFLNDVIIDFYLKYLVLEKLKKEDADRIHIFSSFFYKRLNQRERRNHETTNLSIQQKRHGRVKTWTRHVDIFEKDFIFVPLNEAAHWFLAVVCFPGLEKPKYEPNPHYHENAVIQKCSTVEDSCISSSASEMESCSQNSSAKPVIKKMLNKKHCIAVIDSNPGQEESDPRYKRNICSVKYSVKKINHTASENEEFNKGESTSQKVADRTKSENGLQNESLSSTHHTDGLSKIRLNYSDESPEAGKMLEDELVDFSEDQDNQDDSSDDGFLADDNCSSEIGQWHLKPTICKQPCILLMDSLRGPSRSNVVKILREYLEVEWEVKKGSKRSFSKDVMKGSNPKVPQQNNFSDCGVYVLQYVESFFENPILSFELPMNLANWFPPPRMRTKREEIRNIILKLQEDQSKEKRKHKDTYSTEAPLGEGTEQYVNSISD

[8] = control 3'UTR Renilla luciferase suppression, dose response, counter-screen for Shn3 inhibitor project, cell-based, Clone20-Shn3RL, cherry-picked (AID 624133); assay type: functional
INS1 = test: beta cell apoptosis inhibitors, cytokine rescue, dose response, luminescence, retest (AID 449756); assay type: functional, cell-based; details: Rattus norvegicus;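 note: cell death triggered by IL-1 beta plus TNF-alpha plus IFN-gamma mixture; protective hits raise ATP signal compared with cytokine alone wells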
[9] = Shn3 3'UTR reporter inhibitors, dose response, cell-based, Clone20 osteoblasts, firefly luciferase, cherry-picked (AID 624132); assay type: functional;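 note: firefly luciferase luminescence from reporter carrying the Shn3 3'UTR in osteoblasts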
Protein Wnt-3a = Protein Wnt-3a (Mus musculus, UniProt P27467); test: Wnt3a-driven reporter signaling inhibition, dose response, selectivity assay for Gli-SUFU antagonist project, Wnt-LIGHT cells, luminescence (AID 651570); assay type: functional; details: read-out: IC50_Mean;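 note: Wnt-LIGHT reporter cells stimulated with conditioned medium from Wnt3a-producing cells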
Chain of Protein Wnt-3a (P27467 whole entry): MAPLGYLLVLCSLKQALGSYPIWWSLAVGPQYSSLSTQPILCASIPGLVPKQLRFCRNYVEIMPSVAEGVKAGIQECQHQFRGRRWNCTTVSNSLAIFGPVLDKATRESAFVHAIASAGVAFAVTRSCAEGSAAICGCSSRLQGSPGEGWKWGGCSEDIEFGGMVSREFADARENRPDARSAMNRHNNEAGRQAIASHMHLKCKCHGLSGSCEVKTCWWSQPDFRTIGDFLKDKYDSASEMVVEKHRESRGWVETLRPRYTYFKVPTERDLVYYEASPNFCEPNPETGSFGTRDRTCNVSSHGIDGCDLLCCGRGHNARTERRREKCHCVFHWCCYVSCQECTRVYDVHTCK

[10] = HepG2 cell cytotoxicity, dose response, cytotoxicity control for Shn3 inhibitor project, CellTiter-Glo, cherry-picked (AID 624134); assay type: functional, cell-based
[11] = molecular target: Tyrosine-protein phosphatase non-receptor type 11 (Homo sapiens, UniProt Q06124); test: SHP2 phosphatase inhibition, dose response, selectivity assay for STEP inhibitor project, biochemical (AID 602367); assay type: functional; details: read-out: IC50_Mean
Chain of Tyrosine-protein phosphatase non-receptor type 11 (Q06124 whole entry): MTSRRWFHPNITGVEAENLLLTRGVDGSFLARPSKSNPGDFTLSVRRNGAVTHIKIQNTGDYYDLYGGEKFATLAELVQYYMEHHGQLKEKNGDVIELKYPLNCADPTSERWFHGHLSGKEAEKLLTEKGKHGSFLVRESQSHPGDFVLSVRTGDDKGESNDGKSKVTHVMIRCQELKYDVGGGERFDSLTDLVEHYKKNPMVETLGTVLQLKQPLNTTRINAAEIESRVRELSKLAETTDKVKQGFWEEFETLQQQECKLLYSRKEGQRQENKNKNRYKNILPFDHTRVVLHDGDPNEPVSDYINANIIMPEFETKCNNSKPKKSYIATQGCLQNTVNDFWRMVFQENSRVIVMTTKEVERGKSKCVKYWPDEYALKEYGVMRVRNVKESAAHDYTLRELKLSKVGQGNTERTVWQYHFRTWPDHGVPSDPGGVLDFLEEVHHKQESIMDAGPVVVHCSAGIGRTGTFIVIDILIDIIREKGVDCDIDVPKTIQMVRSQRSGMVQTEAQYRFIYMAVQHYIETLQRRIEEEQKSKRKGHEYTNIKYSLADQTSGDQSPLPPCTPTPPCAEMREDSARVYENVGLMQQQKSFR

[12] = molecular target: Tyrosine-protein phosphatase non-receptor type 5 (Homo sapiens, UniProt P54829); test: STEP phosphatase inhibitors, confirmation, biochemical, fluorescence intensity, uHTS hits (AID 602372); assay type: functional; details: read-out: IC50_Mean
Chain of Tyrosine-protein phosphatase non-receptor type 5 (P54829 whole entry): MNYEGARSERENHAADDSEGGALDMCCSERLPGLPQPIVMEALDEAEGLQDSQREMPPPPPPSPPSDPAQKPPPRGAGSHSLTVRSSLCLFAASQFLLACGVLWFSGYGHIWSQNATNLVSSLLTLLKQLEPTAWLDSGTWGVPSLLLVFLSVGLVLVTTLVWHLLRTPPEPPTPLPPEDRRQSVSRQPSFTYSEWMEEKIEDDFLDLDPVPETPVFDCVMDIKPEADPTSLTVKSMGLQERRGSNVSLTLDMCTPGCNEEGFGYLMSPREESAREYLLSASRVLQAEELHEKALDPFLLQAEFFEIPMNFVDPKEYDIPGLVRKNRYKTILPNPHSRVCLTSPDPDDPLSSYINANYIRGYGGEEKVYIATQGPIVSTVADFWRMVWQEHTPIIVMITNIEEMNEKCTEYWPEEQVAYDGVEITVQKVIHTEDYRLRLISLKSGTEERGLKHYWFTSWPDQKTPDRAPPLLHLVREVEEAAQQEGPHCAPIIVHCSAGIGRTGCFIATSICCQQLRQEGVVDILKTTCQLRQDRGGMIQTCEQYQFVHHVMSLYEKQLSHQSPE

[13] = molecular target: Dual specificity protein phosphatase 3 (Homo sapiens, UniProt P51452); test: VHR phosphatase inhibition, dose response, selectivity assay for STEP inhibitor project, biochemical (AID 602374); assay type: functional; details: read-out: IC50_Mean
Chain of Dual specificity protein phosphatase 3 (P51452 whole entry): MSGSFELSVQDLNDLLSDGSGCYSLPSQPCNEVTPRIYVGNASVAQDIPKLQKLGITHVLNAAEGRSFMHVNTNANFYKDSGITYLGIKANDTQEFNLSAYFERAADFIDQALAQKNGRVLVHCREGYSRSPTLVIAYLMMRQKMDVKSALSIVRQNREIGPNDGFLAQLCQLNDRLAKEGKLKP

T1 sequence (P11940 whole entry): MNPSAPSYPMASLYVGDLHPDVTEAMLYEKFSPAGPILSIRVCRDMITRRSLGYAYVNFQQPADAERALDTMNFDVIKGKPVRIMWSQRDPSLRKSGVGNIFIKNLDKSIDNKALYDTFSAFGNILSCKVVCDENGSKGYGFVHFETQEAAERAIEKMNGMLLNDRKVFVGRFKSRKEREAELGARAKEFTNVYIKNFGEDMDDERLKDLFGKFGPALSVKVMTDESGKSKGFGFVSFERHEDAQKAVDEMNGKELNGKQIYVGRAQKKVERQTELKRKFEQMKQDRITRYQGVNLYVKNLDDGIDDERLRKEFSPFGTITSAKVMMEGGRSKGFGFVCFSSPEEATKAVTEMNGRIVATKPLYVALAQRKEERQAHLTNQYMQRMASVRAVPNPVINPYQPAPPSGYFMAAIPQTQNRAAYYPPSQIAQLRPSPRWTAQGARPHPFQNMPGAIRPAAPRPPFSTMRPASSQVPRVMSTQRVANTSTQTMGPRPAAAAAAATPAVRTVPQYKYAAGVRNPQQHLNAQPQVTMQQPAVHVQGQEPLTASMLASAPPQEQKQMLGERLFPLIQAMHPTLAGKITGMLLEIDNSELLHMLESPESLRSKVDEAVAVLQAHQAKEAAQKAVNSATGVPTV

## CCOC(S)=NC(=NS(C)(=O)=O)c1ccccc1
[1]
  IC50: > 66 µM (inactive)
[2]
  IC50: > 66 µM (inactive)

## CCOC(=O)[C@]12Cc3c(cc(OC)c(OC)c3OC)[C@H]1N(C1CCCCC1)C(=O)c1cc(OC)ccc12
[3]
  IC50: 2.36 µM (active)

## CCOC(=O)C1(CCc2ccccc2)CCN(C(=O)CN2CCOC2=O)CC1
[4]
  AC50: 3.89 µM (active)

## O=c1c2ccccc2oc2ccc(-c3ccc4[nH]ccc4c3)cc12
Protein skinhead-1
  IC50: 4.77 µM (active)
[5]
  IC50: > 100 µM (inactive)
[6]
  IC50: 6.1 µM (active)
Caspase-3
  IC50: 75.1 µM (active)
[7]
  IC50: 33.7 µM (active)

## O=C(c1cc2sccc2n1Cc1ccc(F)cc1)N1CCN(c2nc3ccccc3s2)CC1
[8]
  AC50: 1.71 µM (active)
INS1
  AC50: 3.42 µM (active)
[9]
  AC50: 1.36 µM (active)
Protein Wnt-3a
  IC50: 5.49 µM (active)
[10]
  AC50: 3.48 µM (active)

## S=C(NCCCN1CCOCC1)Nc1ccc(-c2nc3ccccc3[nH]2)cc1
[11]
  IC50: 3.45 µM (active)
[12]
  IC50: 56.7 µM (inactive)
[13]
  IC50: 3.03 µM (active)
